Measurements published in paper PMC4503722, “Novel Phenotypic Outcomes Identified for a Public Collection of Approved Drugs from a Publicly Accessible Panel of Assays” (PLoS ONE, 2015).
Like-named read-outs stand apart in the source and are kept apart here.

Key:
[1] = tested on: endothelial tube formation in co-cultures of ECFCs and ADSCs treated with VEGF; assay: cells; type: cell-based, human; details: for IC50: read-out: VEGF_ADSC\ECFC Angio CD31 TubeArea summarized IC50
[2] = tested on: ECFC/ADSC co-culture cell nuclei number; details: for IC50: read-out: VEGF_ADSC\ECFC Angio Hoechst NucArea summarized IC50
HeLa cells = assay: cells; type: cell-based
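For Hela CellCycMod PI 4N summarized IC50 in this document: value tracks stimulation of 4N DNA content.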

## CN(C)CCOC1=Cc2ccccc2Sc2ccc(Cl)cc21 [NCGC00182081-04]
[1]
  VEGF_ADSC\ECFC Angio CD31 TubeArea IC50/EC50: > 10 µM
[2]
  VEGF_ADSC\ECFC Angio Hoechst NucArea IC50/EC50: > 10 µM

## CS(=O)(=O)CCNCc1ccc(-c2ccc3ncnc(Nc4ccc(OCc5cccc(F)c5)c(Cl)c4)c3c2)o1 [NCGC00167507-04]
[1]
  VEGF_ADSC\ECFC Angio CD31 TubeArea IC50/EC50: > 10 µM
[2]
  VEGF_ADSC\ECFC Angio Hoechst NucArea IC50/EC50: > 10 µM

## Cc1cccc(C)c1NC(=O)CN1CCN(CCCC(c2ccc(F)cc2)c2ccc(F)cc2)CC1 [NCGC00016627-04]
[1]
  IC50/EC50, VEGF_ADSC\ECFC Angio CD31 TubeArea (assay number 2): > 10 µM
[2]
  IC50/EC50, VEGF_ADSC\ECFC Angio Hoechst NucArea (assay number 3): 9.37 µM

## C[C@H]1O[C@@H](O[C@H]2CC[C@@]3(C)[C@H](CC[C@@H]4[C@@H]3C[C@@H](O)[C@]3(C)[C@@H](C5=CC(=O)OC5)CC[C@]43O)C2)C[C@H](O)[C@@H]1O[C@H]1C[C@H](O)[C@H](O[C@H]2C[C@H](O)[C@H](O[C@@H]3O[C@H](CO)[C@@H](O)[C@H](O)[C@H]3O)[C@@H](C)O2)[C@@H](C)O1 [NCGC00159441-03]
[1]
  VEGF_ADSC\ECFC Angio CD31 TubeArea IC50/EC50: 0.0614 µM
[2]
  VEGF_ADSC\ECFC Angio Hoechst NucArea IC50/EC50: 0.2987 µM

## COc1ccc(/C=N/NC(=O)c2ccncc2)cc1OC [NCGC00160656-02]
[1]
  IC50: > 10 µM
[2]
  IC50: > 10 µM

## CC(=O)C[C@H]1[C@H](O[C@H]2[C@H](OC(C)C(=O)N[C@@H](C)C(=O)N[C@H](CCC(=O)N[C@@H](CCCCN)C(=O)N[C@H](C)C(=O)O)C(N)=O)[C@@H](NC(=O)O)C(O)O[C@@H]2CO)O[C@H](CO)[C@@H](O)[C@@H]1O (some centres unmarked) [NCGC00181761-01]
[1]
  VEGF_ADSC\ECFC Angio CD31 TubeArea IC50/EC50: > 10 µM
[2]
  VEGF_ADSC\ECFC Angio Hoechst NucArea IC50/EC50: > 10 µM

## COC(=O)C1=C(C)NC(C)=C(C(=O)OC(C)(C)CN(C)CCC(c2ccccc2)c2ccccc2)C1c1cccc([N+](=O)[O-])c1.Cl (centres unmarked) [NCGC00167492-03]
[1]
  VEGF_ADSC\ECFC Angio CD31 TubeArea IC50/EC50: > 10 µM
[2]
  VEGF_ADSC\ECFC Angio Hoechst NucArea IC50/EC50: > 10 µM

## C#C[C@]1(O)CC[C@H]2[C@@H]3CCC4=CCCC[C@@H]4[C@H]3C(=C)C[C@@]21CC [NCGC00167449-02]
[1]
  VEGF_ADSC\ECFC Angio CD31 TubeArea IC50/EC50: > 10 µM
[2]
  VEGF_ADSC\ECFC Angio Hoechst NucArea IC50/EC50: 9.571 µM

## O=C(CCN1CCC(c2ccccc2)C1)c1ccc2c(c1)OCCO2 (centres unmarked) [NCGC00160665-02]
[1]
  VEGF_ADSC\ECFC Angio CD31 TubeArea IC50/EC50: > 10 µM
[2]
  VEGF_ADSC\ECFC Angio Hoechst NucArea IC50/EC50: > 10 µM

## CCOC(=O)C1=C(C)NC(C)=C(C(=O)OCC)C1c1ccccc1/C=C/C(=O)OC(C)(C)C [NCGC00263529-01]
[1]
  IC50/EC50, VEGF_ADSC\ECFC Angio CD31 TubeArea (assay number 2): > 10 µM
[2]
  IC50/EC50, VEGF_ADSC\ECFC Angio Hoechst NucArea (assay number 3): > 10 µM

## CCCCCCCCOc1ccccc1C(=O)Nc1ccc(C(=O)OCC[N+](C)(CC)CC)cc1.[Br-] [NCGC00163507-03]
[1]
  VEGF_ADSC\ECFC Angio CD31 TubeArea IC50/EC50: > 10 µM
[2]
  VEGF_ADSC\ECFC Angio Hoechst NucArea IC50/EC50: 8.466 µM

## CCCCN(CCCC)CCC(O)c1cc2c(Cl)cc(Cl)cc2c2cc(C(F)(F)F)ccc12 (centres unmarked) [NCGC00179250-03]
[1]
  VEGF_ADSC\ECFC Angio CD31 TubeArea IC50/EC50: > 10 µM
[2]
  VEGF_ADSC\ECFC Angio Hoechst NucArea IC50/EC50: > 10 µM

## O=C(Nc1ccc([N+](=O)[O-])cc1)Nc1ccc([N+](=O)[O-])cc1 [NCGC00166218-02]
[1]
  IC50: > 10 µM
[2]
  IC50: > 10 µM

## O=c1c(-c2ccc(O)cc2)coc2cc(O)cc(O)c12 [NCGC00015479-19]
[1]
  IC50/EC50, VEGF_ADSC\ECFC Angio CD31 TubeArea (assay number 2): > 10 µM
[2]
  IC50/EC50, VEGF_ADSC\ECFC Angio Hoechst NucArea (assay number 3): > 10 µM

## CCCSS/C(CCO)=C(\C)N(C=O)Cc1cnc(C)nc1N [NCGC00167447-02]
[1]
  VEGF_ADSC\ECFC Angio CD31 TubeArea IC50/EC50: > 10 µM
[2]
  VEGF_ADSC\ECFC Angio Hoechst NucArea IC50/EC50: > 10 µM

## O=c1oc2c(O)c(O)cc3c(=O)oc4c(O)c(O)cc1c4c23 [NCGC00017245-10]
[1]
  VEGF_ADSC\ECFC Angio CD31 TubeArea IC50/EC50: > 10 µM
[2]
  VEGF_ADSC\ECFC Angio Hoechst NucArea IC50/EC50: > 10 µM

## Cc1ccc(Nc2c(F)cccc2Cl)c(CC(=O)O)c1 [NCGC00181795-02]
[1]
  VEGF_ADSC\ECFC Angio CD31 TubeArea IC50/EC50: > 10 µM
[2]
  VEGF_ADSC\ECFC Angio Hoechst NucArea IC50/EC50: > 10 µM

## CCCCC(CC)COC(=O)C(C#N)=C(c1ccccc1)c1ccccc1 (centres unmarked) [NCGC00091585-05]
[1]
  VEGF_ADSC\ECFC Angio CD31 TubeArea IC50/EC50: > 10 µM
[2]
  VEGF_ADSC\ECFC Angio Hoechst NucArea IC50/EC50: 3.289 µM

## C[C@H]1O[C@@H](O[C@H]2[C@@H](O)C[C@H](O[C@H]3[C@@H](O)C[C@H](O[C@H]4CC[C@@]5(C)[C@H](CC[C@@H]6[C@@H]5CC[C@]5(C)[C@@H](C7=CC(=O)OC7)CC[C@]65O)C4)O[C@@H]3C)O[C@@H]2C)C[C@H](O)[C@@H]1O [NCGC00142623-04]
[1]
  IC50: 0.011 µM
[2]
  IC50: 0.103 µM

## O=C(N/N=C/c1ccccc1O)c1ccncc1 [NCGC00160648-02]
[1]
  IC50: > 10 µM
[2]
  IC50: > 10 µM

## CCOc1ccc2nc3cc(N)ccc3c(N)c2c1 [NCGC00096056-02]
HeLa cells; assay number 14, 2N, read-out: Hela CellCycMod PI 2N summarized IC50
  IC50: > 10 µM
HeLa cells; assay number 15, S phase, read-out: Hela CellCycMod PI S Phase summarized IC50
  IC50: > 10 µM
HeLa cells; assay number 16, 4N, read-out: Hela CellCycMod PI 4N summarized IC50
  IC50: > 10 µM
HeLa cells; assay number 17, MI, read-out: Hela CellCycMod PI MI summarized IC50
  IC50: > 10 µM
HeLa cells; assay number 18, cell number, read-out: Hela CellCycMod PI Cell Number summarized IC50
  IC50: 2.11 µM
[2]
  IC50: > 10 µM

## Cc1ccc(C(=O)Oc2ccc(C(O)CNC(C)(C)C)cc2OC(=O)c2ccc(C)cc2)cc1 (centres unmarked) [NCGC00253593-01]
[1]
  VEGF_ADSC\ECFC Angio CD31 TubeArea IC50/EC50: > 10 µM
[2]
  VEGF_ADSC\ECFC Angio Hoechst NucArea IC50/EC50: > 10 µM

## CC[C@H](C)C(=O)O[C@H]1C[C@H](O)C=C2C=C[C@H](C)[C@H](CC[C@@H](O)C[C@@H](O)CC(=O)O)[C@H]21 [pravastatin, reference compound]
[1]; ECFC/ADSC co-culture
  inhibition of endothelial tube / cord formation (in words): did not inhibit endothelial tube formation

## CC(C)(C)CC(C)(C)c1ccc(OCCOCC[N+](C)(C)Cc2ccccc2)cc1 [NCGC00016373-08]
[1]
  IC50: 3.74 µM
